Measured values: ChEMBL document CHEMBL1201862, “PubChem BioAssay data set” (2004)
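Grown in 96-well plates, cells were treated for 48 hours with each compound at five concentrations. Insufficient inhibition: endpoint recorded as highest concentration tested. GI50 marks 50% less growth.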 Calls of active or inactive are those of the source. No stated cut-off is given here; in the data, active = GI50 up to about 1.1 µM and inactive = higher.

Key:
Experiment in all cases: NCI anticancer screen, dose series, 48 h
[1] = test system: 786-0
[2] = test system: A549
[3] = test system: ACHN
[4] = test system: CAKI-1
[5] = test system: CCRF-CEM
[6] = test system: COLO 205
[7] = test system: DLD-1
[8] = test system: DMS-114
[9] = test system: DMS-273
[10] = test system: EKVX
[11] = test system: HCC 2998
[12] = test system: HCT-116
[13] = test system: HCT-15
[14] = test system: HL-60
[15] = test system: HOP-18
[16] = test system: HOP-62
[17] = test system: HOP-92
[18] = test system: HT-29
[19] = test system: IGROV-1
[20] = test system: K562
[21] = test system: KM-20L2
[22] = test system: KM12
[23] = test system: LOX IMVI
[24] = test system: LXFL 529
[25] = test system: M14
[26] = test system: MOLT-4
[27] = test system: Malme-3M
[28] = test system: NCI-H226
[29] = test system: NCI-H23
[30] = test system: NCI-H460
[31] = test system: OVCAR-3
[32] = test system: OVCAR-4
[33] = test system: OVCAR-5
[34] = test system: OVCAR-8
[35] = test system: RPMI-8226
[36] = test system: RXF 393
[37] = test system: SF-268
[38] = test system: SF-295
[39] = test system: SF-539
[40] = test system: SK-MEL-28
[41] = test system: SK-MEL-2
[42] = test system: SK-MEL-5
[43] = test system: SK-OV-3
[44] = test system: SN12C
[45] = test system: SNB-19
[46] = test system: SNB-75
[47] = test system: SNB-78
[48] = test system: SR
[49] = test system: SW-620
[50] = test system: TK-10
[51] = test system: U-251
[52] = test system: UACC-257
[53] = test system: UACC-62
[54] = test system: UO-31
[55] = test system: XF498
[56] = test system: A498
[57] = test system: M19-MEL
[58] = test system: NCI-H522

## Nc1nc2sc3ccccc3c(=O)n2n1
[1]
  GI50: > 100 µM (inactive)
[2]
  GI50: > 100 µM (inactive)
[3]
  GI50: > 100 µM (inactive)
[4]
  GI50: > 100 µM (inactive)
[5]
  GI50: > 100 µM (inactive)
[6]
  GI50: > 100 µM (inactive)
[7]
  GI50: > 100 µM (inactive)
[8]
  GI50: > 100 µM (inactive)
[9]
  GI50: > 100 µM (inactive)
[10]
  GI50: 64.7 µM (inactive)
[11]
  GI50: > 100 µM (inactive)
[12]
  GI50: > 100 µM (inactive)
[13]
  GI50: > 100 µM
[14]
  GI50: > 100 µM (inactive)
[15]
  GI50: > 100 µM (inactive)
[16]
  GI50: > 100 µM (inactive)
[17]
  GI50: > 100 µM (inactive)
[18]
  GI50: > 100 µM (inactive)
[19]
  GI50: > 100 µM (inactive)
[20]
  GI50: > 100 µM (inactive)
[21]
  GI50: > 100 µM (inactive)
[22]
  GI50: > 100 µM (inactive)
[23]
  GI50: > 100 µM (inactive)
[24]
  GI50: > 100 µM (inactive)
[25]
  GI50: > 100 µM (inactive)
[26]
  GI50: > 100 µM (inactive)
[27]
  GI50: > 100 µM (inactive)
[28]
  GI50: > 100 µM (inactive)
[29]
  GI50: > 100 µM (inactive)
[30]
  GI50: > 100 µM (inactive)
[31]
  GI50: > 100 µM (inactive)
[32]
  GI50: > 100 µM (inactive)
[33]
  GI50: > 100 µM (inactive)
[34]
  GI50: > 100 µM (inactive)
[35]
  GI50: > 100 µM (inactive)
[36]
  GI50: > 100 µM (inactive)
[37]
  GI50: > 100 µM (inactive)
[38]
  GI50: > 100 µM (inactive)
[39]
  GI50: > 100 µM (inactive)
[40]
  GI50: > 100 µM (inactive)
[41]
  GI50: > 100 µM (inactive)
[42]
  GI50: > 100 µM (inactive)
[43]
  GI50: > 100 µM (inactive)
[44]
  GI50: > 100 µM (inactive)
[45]
  GI50: > 100 µM (inactive)
[46]
  GI50: > 100 µM (inactive)
[47]
  GI50: > 100 µM (inactive)
[48]
  GI50: > 100 µM (inactive)
[49]
  GI50: > 100 µM (inactive)
[50]
  GI50: > 100 µM (inactive)
[51]
  GI50: > 100 µM (inactive)
[52]
  GI50: > 100 µM (inactive)
[53]
  GI50: > 100 µM (inactive)
[54]
  GI50: > 100 µM (inactive)
[55]
  GI50: > 100 µM (inactive)

## CCCN1CN(C(C(=O)N[C@@H]2C(=O)N3C2SC(C)(C)C3C(=O)O)c2ccc(O)cc2)CSC1=S (stereo partly specified)
[1]
  GI50: > 100 µM (inactive)
[56]
  GI50: > 100 µM (inactive)
[3]
  GI50: > 100 µM (inactive)
[4]
  GI50: > 100 µM (inactive)
[5]
  GI50: > 100 µM (inactive)
[6]
  GI50: 29.8 µM (inactive)
[7]
  GI50: 52.8 µM (inactive)
[8]
  GI50: 19.1 µM (inactive)
[9]
  GI50: > 100 µM (inactive)
[10]
  GI50: > 100 µM (inactive)
[12]
  GI50: > 100 µM (inactive)
[13]
  GI50: > 100 µM
[14]
  GI50: > 100 µM (inactive)
[15]
  GI50: > 100 µM (inactive)
[16]
  GI50: > 100 µM (inactive)
[17]
  GI50: > 100 µM (inactive)
[18]
  GI50: > 100 µM (inactive)
[19]
  GI50: > 100 µM (inactive)
[20]
  GI50: 24.4 µM (inactive)
[21]
  GI50: > 100 µM (inactive)
[22]
  GI50: > 100 µM (inactive)
[23]
  GI50: 97.9 µM (inactive)
[24]
  GI50: 61.4 µM (inactive)
[25]
  GI50: > 100 µM (inactive)
[57]
  GI50: > 100 µM (inactive)
[26]
  GI50: > 100 µM (inactive)
[27]
  GI50: > 100 µM (inactive)
[29]
  GI50: > 100 µM (inactive)
[30]
  GI50: > 100 µM (inactive)
[58]
  GI50: 22.6 µM (inactive)
[31]
  GI50: 23.6 µM (inactive)
[32]
  GI50: > 100 µM (inactive)
[33]
  GI50: > 100 µM (inactive)
[34]
  GI50: > 100 µM (inactive)
[35]
  GI50: 62.1 µM (inactive)
[37]
  GI50: > 100 µM (inactive)
[38]
  GI50: > 100 µM (inactive)
[39]
  GI50: > 100 µM (inactive)
[40]
  GI50: > 100 µM (inactive)
[41]
  GI50: > 100 µM (inactive)
[42]
  GI50: > 100 µM (inactive)
[43]
  GI50: > 100 µM (inactive)
[44]
  GI50: > 100 µM (inactive)
[45]
  GI50: > 100 µM (inactive)
[46]
  GI50: > 100 µM (inactive)
[50]
  GI50: > 100 µM (inactive)
[51]
  GI50: > 100 µM (inactive)
[52]
  GI50: > 100 µM (inactive)
[53]
  GI50: > 100 µM (inactive)
[54]
  GI50: > 100 µM (inactive)
[55]
  GI50: > 100 µM (inactive)
